Results on one compound are retold here after patent US9606124B2, “Methods of detecting and treating stem-cell containing solid tumors” (The Regents of The University of Michigan, priority 2008, dated 2017).

“Also recorded” adds a separate entry of the source.

Series [1] has as its system normal mammary epithelial cells from reduction mammoplasties. Put plainly: MTT assay on normal mammary epithelial cells. To be noted: adherent; five days; repertaxin 100 nM or 500 nM, FAS agonist 500 ng/ml. The series is classed as cell-based, human. The method, then:
Dissociation of mammary tissue. 100-200 g of normal breast tissue from reduction mammoplasties was minced with scalpels, dissociated enzymatically, and single cells were cultured in suspension to generate mammospheres or on a collagen substratum in adherent condition to induce cellular differentiation (Dontu et al. Genes Dev. 17:1253-1270, herein incorporated by reference in its entirety).
Cell viability. […] After one day, treatment with repertaxin was started. […]. […] Nuclei were counterstained with DAPI/antifade (Invitrogen).
For orientation: Tetrazolium assays rely on reduction of a dye to a coloured formazan, in cell work by metabolically active cells.

For series [2], the system named is cells from primary tumors SUM159, MC1, UM2, UM3. Put plainly: Re-implantation of cells from treated tumors into secondary mice. It counts as in vivo, NOD/SCID mice. To be noted: for secondary tumor formation / regrowth from serial dilutions of treated primary tumors: secondary NOD/SCID mice, no further treatment. The procedure:
Animal model. […] Cells from these tumors were transplanted orthotopically in the humanized cleared fat-pad of NOD/SCID mice, without cultivation in vitro. […] 50,000 cells from each xenotransplants were injected in the humanized fat pad of NOD/SCID mice and monitored the tumor growth. […] The animals were euthanized when the tumors were approximately 1.5 cm in the largest diameter, to avoid tumor necrosis and in compliance with regulations for use of vertebrate animal in research. A portion of each fat pad injected was fixed in formalin and embedded in paraffin for histological analysis. The rest of the tumor cells were re-implantated into secondary NOD/SCID mice. […]

The next series deals with FOXO3A. Put plainly: Immunofluorescence staining of FOXO3A localization in SUM159 cells. It counts as cell-based, human. The procedure:
(§1) The non-treated SUM159 cells presented 80% of cells positive in the cytoplasm for FOXOA3. […] The change in FOXOA3 cellular localation from the cytoplasm to the nucleus indicates an activation of FOXOA3 protein.
(§2) Immunostaining. For immunofluorescent staining, sorted CXCR1-positive cells were fixed with 95% methanol at −20° C. for 10 minutes. Cells were rehydrated in PBS and incubated with respective antibodies at room temperature for 1 hour. Primary antibodies used were P-FAK (1:50, Cell Signaling Technology), P-AKT (1:300, Cell Signaling Technology), and FOXO3a (1:250, Cell Signaling Technology). Slides were then washed and incubated 30 minutes with PE conjugated secondary antibodies (Jackson labs). The nuclei were counterstained with DAPI/antifade (Invitrogen) and coverslipped. […] Immunohistochemistry for the detection of ALDH1 (1:100, BD biosciences), P-FAK, P-AKT, FOXO3a expression was done on paraffin section (Ginestier et al. Am. J Pathol. 161:1223-1233, herein incorporated by reference in its entirety). Staining was done utilizing the Histostainplus kit (Zymed laboratories). Diaminobenzidine (DAB) or 3-amino-9-ethylcarbazole (AEC) was used as chromogen and sections were counterstained with hematoxylin.

The test system of series [3] is CXCR1-positive, CXCR1-negative and unsorted populations of SUM159 cells. Briefly: MTT assay on flow sorted CXCR1-positive, CXCR1-negative and unsorted populations. The series is classed as cell-based, human. As to conditions: for cell viability of the unsorted / unseparated population: SUM159 cells. The procedure: Cell viability. […] Nuclei were counterstained with DAPI/antifade (Invitrogen).
Flow cytometry analysis. […] CD95/FAS staining were performed utilizing an anti-CD95 labeled APC (1:20, BD biosciences). […] Fresh cells were stained with 1 μg/ml PI (Sigma) for 5 min for viability.

The subject of series [4] is phospho-FAK and phospho-AKT. Briefly: Immunofluorescence staining of p-FAK and p-AKT in SUM159 cells. The series is classed as cell-based, human. To be noted: for phospho-FAK and phospho-AKT expression (immunofluorescence): sorted CXCR1-positive cells. The procedure: as §1, §2
Another series relates to HCC1954 cells. Briefly: Metastasis formation after intracardiac injection of HCC1954 cells (bioluminescence). As to conditions: 250,000 cells intracardiac, repertaxin 15 mg/kg s.c. twice a day 28 days vs saline. It counts as in vivo, NOD/SCID mice. The procedure:
Intracardiac inoculation. […] Twelve hours after intracardiac injections, mice were begun on twice per day repertaxin injections or saline for the controls. Bioluminescence detection. Baseline bioluminescence was assessed before inoculation and each week thereafter inoculations. Bioluminescence detection procedures was performed as previously described ([…] et al. Cancer Res. 69:1302-1313, herein incorporated by reference in its entirety). Normalized photon flux represents the ratio of the photon flux detected each week after inoculations and the photon flux detected before inoculation.

As to `CC(C)Cc1ccc([C@@H](C)C(=O)NS(C)(=O)=O)cc1` [Repertaxin], in series [1], the “viability of normal mammary epithelial cells (MTT)” value is “no effect”. Besides, the “reduction in tumor growth in secondary mice compared to cells from control or docetaxel-treated animals” value in series [2] (equal numbers of cells injected) was 2-5 fold. The Tumors/Injections in series [2] (number of cells injected 100) is reported as 0/9; in series [2] (number of cells injected 250), 0/2; in series [2] (number of cells injected 500), 1/3; in series [2] (number of cells injected 1,000), 4/8; in series [2] (number of cells injected 2,500) it was 2/2; in series [2] (number of cells injected 5,000), 2/2. The Tumors/Injections in series [2] (number of cells injected 10,000) is 4/4. For the same compound, the entries for the “secondary tumor formation / regrowth from serial dilutions of treated primary tumors” value in series [2] and in series [2] (listed as Reperatxin) were “reduced tumor growth in secondary recipients; also recorded: only higher numbers of cells” and “delayed secondary tumors which were significantly smaller in size”, respectively. In the series with FOXO3A (SUM159, 100 nM, 2 days), the “cells positive in the nucleus for FOXOA3” value amounted to 80%. The “FOXO3A localization (immunofluorescence)” value with FOXO3A (sorted CXCR1-positive cells, listed as repertaxin) is “shuttled to the nucleus; also recorded: re-localization of FOXO3A to the nucleus”. In addition, the figures for the “cell viability of the unsorted / unseparated population” value in series [3] and in series [3] (listed as repertaxin) were “massive cell death” and “decrease in cell viability”, respectively. For the same compound, the “cell viability of the CXCR1-negative population” value in series [3] (sorted SUM159 cells) is recorded as “no effect”. In addition, the “cell viability of the CXCR1-positive population” value is given as “decreased cell viability” in series [3] (sorted SUM159 cells) and “decrease in cell viability” in series [3] (sorted SUM159 cells, listed as repertaxin). Moreover, the “p-FAK and p-AKT (immunofluorescence)” value in series [4] (SUM159, 100 nM, 2 days) is listed as “complete inactivation”. The “phospho-FAK and phospho-AKT expression (immunofluorescence)” value was “disappearance of phospho-FAK” in series [4]; “dramatic decrease of phospho-FAK and phospho-AKT expression” in series [4] (listed as repertaxin). The “metastasis formation (normalized photon flux)” value with HCC1954 cells is given as “significantly reduced metastasis formation”; in the series on HCC1954 cells (listed as repertaxin) it was “statistically significant decrease in metastasis formation”.
